Blank lines part the entries; values can stand above or below the molecule they belong to.
Experiments:
PI3Kalpha = target: T1, PI3Kalpha (Homo sapiens, UniProt P42336); assay: Cell-free kinase assay PI3K-ALPHA; format: biochemical
T1 construct: purchased Upstate #14-602
Description: (§1) The inhibitory effect of the compounds of the invention was tested on various human serine/threonine kinases, tyrosine kinases and lipid kinases in enzymatic assays. Recombinant human kinases, for example PI3Kalpha, -beta, -gamma, -delta, Erk2, p38alpha, p38gamma, Jnk1, Jnk2 and others were used, in some cases as full-length kinases, in some cases as truncated fragments—but at least consisting of the functional kinase domains. The commercial kinase proteins (Proqinase, Upstate) were used as recombinant fusion proteins with GST (glutathione S-transferase) tag or His tag. Depending on the substrate type, the different kinase reactions were quantified by suitable ALPHA™ beads (PerkinElmer).
(§2) The kinase assays for PI3K and Erk are described in detail and selected test results are cited below. […] Subsequently, the kinase reaction was stopped by adding the ALPHA bead mix (10 μg/ml, #6760603/PerkinElmer), preincubated with 1 nM GST:Grp1 fusion protein (Upstate) and […] (#C-39B6/Echelon) in 50 mM Hepes, 50 mM NaCl, 50 mM EDTA and 0.1% BSA, and left to stand overnight. • b) Erk2-ALPHA: The test substance, 0.625 ng of Erk2 (#14-173, Upstate), 10 μM ATP and 15 nM biotinylated MBP (myelin basic protein) substrate were incubated on a 384-well Optiplate (Perkin Elmer) in a volume of 15 μl for 1 h in 25 mM Tris, 10 mM MgCl2, 0.1% Tween-20, 100 μM NaVO4, 2 mM DTT at pH 7.5. The kinase reaction was stopped by adding 10 μl of the ALPHA bead mix (10 μg/ml, #6760617/PerkinElmer), pre-incubated with anti-phospho MBP antibody (320 pM, #05-429/Upstate), in 25 mM Tris, 200 mM NaCl, 100 mM EDTA and 0.3% BSA, and left to stand overnight.
(§3) The luminiscence was detected the next morning in a Fusion™ alpha instrument (Perkin Elmer).
(§4) The calculation of % inhibition values per substance concentration was done by means of the following formula from the raw data determined in the Fusion™ alpha:
(§5) The controls were determined 8 fold and the substance samples 2 fold. 0% control contained neither any ATP nor any substrate. The 100% control contained no test substance. The IC50 values were determined with GraphPadPrism.

[1] = Cell-free kinase assay Erk2-ALPHA; format: biochemical, human; details: cell-free kinase assay; MAPK = Erk2, p38alpha, Jnk1+Jnk2 of Table 1
Description: as §1, §2, §3, §4, §5

Erk2 = target: T2, Erk2 (Mus musculus, UniProt P63085); assay: Cell-free kinase assay Erk2-ALPHA; format: biochemical, human; details: 10 μM ATP
T2 construct: purchased Upstate #14-173
T2 sequence (P63085 whole entry): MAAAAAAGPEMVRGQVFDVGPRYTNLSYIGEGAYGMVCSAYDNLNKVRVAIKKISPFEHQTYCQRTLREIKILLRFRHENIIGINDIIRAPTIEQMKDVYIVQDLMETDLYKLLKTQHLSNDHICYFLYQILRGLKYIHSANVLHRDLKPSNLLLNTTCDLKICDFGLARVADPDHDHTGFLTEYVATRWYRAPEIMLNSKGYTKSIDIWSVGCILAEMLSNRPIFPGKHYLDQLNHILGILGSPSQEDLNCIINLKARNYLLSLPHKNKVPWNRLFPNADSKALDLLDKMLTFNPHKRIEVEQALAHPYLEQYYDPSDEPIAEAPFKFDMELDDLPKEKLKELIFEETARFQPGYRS
Description: as §1, §2, §3, §4, §5

p38alpha = p38alpha (Homo sapiens, UniProt Q16539); assay: Cell-free kinase assay (ALPHA technology) p38alpha; format: biochemical; details: 10 μM ATP
Sequence of p38alpha (Q16539 whole entry): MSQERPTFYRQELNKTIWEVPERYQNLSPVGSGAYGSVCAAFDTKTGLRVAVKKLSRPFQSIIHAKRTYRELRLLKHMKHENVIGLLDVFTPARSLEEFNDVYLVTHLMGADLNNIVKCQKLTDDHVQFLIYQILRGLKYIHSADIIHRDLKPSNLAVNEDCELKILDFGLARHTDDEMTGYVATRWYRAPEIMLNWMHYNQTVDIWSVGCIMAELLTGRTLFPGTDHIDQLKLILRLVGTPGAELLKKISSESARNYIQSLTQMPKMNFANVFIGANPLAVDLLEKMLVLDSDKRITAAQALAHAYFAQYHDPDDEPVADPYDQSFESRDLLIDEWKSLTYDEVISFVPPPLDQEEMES
Description: as §1, §2, §3, §4, §5

Jnk1 + Jnk2 = test system: T3, Jnk1 + Jnk2; assay: Cell-free kinase assay (ALPHA technology) Jnk1 + Jnk2; format: biochemical, human; details: 10 μM ATP
T3 construct: fused on or other part: GST tag or His tag (commercial recombinant fusion proteins from Proqinase or Upstate)
Description: as §1, §2, §3, §4, §5

MDA-MB468 = assay: XTT assay, anti-proliferative activity, MDA-MB468; format: cell-based; details: Homo sapiens, MDA-MB-468; 45 h incubation
Description: (§6) The principle of this test is based on the intracellular reduction of the tetrazolium dye XTT (sodium 3′-[1-(phenylaminocarbonyl)-3,4-tetrazolium]bis(4-methoxy-6-nitro)benzenesulphonic acid, Sigma) to a formazan dye by mitochondrial dehydrogenases. The dye is formed only by metabolically active cells. Its photometrically measurable intensity is a quantitative indicator for the presence of living cells. The reduction in the dye formation as a result of incubation of the cells with substances serves as a parameter for the anti-proliferative activity.
(§7) The tumour cell lines (ATCC) were seeded in 96-well microtitre plates in a defined cell count (5000 cells/well for Hct116; 10000 cells/well for MDA MB468), and incubated overnight at 37° C., 5% CO2 and 95% air humidity. The test substances were made up as stock solutions (10 mM) in DMSO. […] The cell plates were then incubated for 45 h at 37° C., 5% CO2 and 95% air humidity.
(§8) For the detection reaction, the XTT substrate was mixed with PMS (N-methyldibenzopyrazine methylsulphate, Sigma) and added to the cells, to result in a final concentration of 325 μg of XTT/ml and 2.5 μg PMS/ml. The mixture was then incubated for 3 h at 37° C., 95% air humidity. Subsequently the formazan salt formed by cellular dehydrogenases was quantified at an absorption of 490 nm.
(§9) The evaluation of the % inhibition values was done by means of the following formula from the values for the optical densities measured in each case at 490 nm:
(§10) The controls were determined 8 fold, the substance samples 2 fold. 0% control contained no cells and the 100% control contained no test substance. The EC50 values were determined with GraphPadPrism.

Hct116 = assay: XTT assay, anti-proliferative activity, Hct116; format: cell-based; details: Homo sapiens, HCT-116; 45 h incubation
Description: as §6, §7, §8, §9, §10

Phospho-Akt (Ser 473) = assay: Cellular substrate phosphorylation (Western blotting), PI3K →pAkt; format: cell-based, human; details: for inhibition at 50 µM: Homo sapiens, 5 h; for inhibition of cellular phospho-Akt / PI3K-Akt pathway, in words: Western blotting, concentrations of 5-50 μM
Description: (§11) This method enables a statement of whether the kinase modulator investigated achieves the desired effect in a cellular context too, i.e., in this case, a substrate protein downstream of the target kinase is examined for its phosphorylation status. To this end, the cells incubated with substance are lysed and the overall protein is separated on a reducing polyacrylamide gel. Subsequently, the proteins are transferred to a PVDF membrane by Western blotting and the substrate bands sought are made visible with specific antibodies and a suitable detection method. The substrate proteins down-stream of the target kinases are detected simultaneously with an anti-phospho antibody which is specific in each case and a total antibody which recognizes the substrate total protein. The duplex technology of the ODYSSEY imager (LiCOR) enables this simultaneous measurement. The intensity of the total substrate bands is employed to normalize and quantify the phosphorylation inhibition or activation.
(§12) Suitable tumor cell lines (e.g. BxPC3, Hct116 or MDA MB468) were seeded into 6-well microtitre plates in a defined cell count (e.g. 350 000 cells/well for BxPC3 and Hct116) in the particular standard complete media and then incubated overnight at 37° C., 5% CO2 and 95% air humidity. Afterwards, the cells were incubated for 24 h under serum-reduced conditions, i.e. in the particular medium except at only 0.25% serum. The test substances were made up as stock solutions (10 mM) in DMSO and incubated with the cells at final concentrations of 5, 15.8 and 50 μM for 5 h. This was followed by cell lysis in 25 mM Tris, 150 mM NaCl, 10 mM sodium pyrophosphate, 2 mM EGTA, 25 mM beta-glycerophosphate, 25 mM NaF, 10% glycerol, 0.75% NP-40, 100 μM NaVO4 buffer. After protein quantification using the BCA (bicinchonic acid protein assay kit, Sigma) assay, amounts of protein of about 20 μg per track were separated on a Lämmli polyacrylamide gel and then transferred onto a PVDF membrane (Millipore) by semi-dry Western blotting at 0.8 mA/cm^2 for 1 h. This was followed by prehybridization of the membrane for 1 hour in I-block reagent (Applied Biosystems) and overnight simultaneous incubation with the specific antibodies. […] After the membrane had been washed, the secondary antibodies were incubated with anti-rabbit IR Dye 800 (#611-732-127, Rockland) for the phospho antibodies and anti-goat Alexa Fluor 680 (#A-21081, […]) for the total protein antibodies. After incubation for 30 min at room temperature in the dark, the hybridization of the detection antibody was detected on the membrane by scanning in an ODYSSEY imager (LiCOR).

Phospho-p90RSK (S380) = assay: Cellular substrate phosphorylation (Western blotting), Erk →pRsk; format: cell-based, human; details: for inhibition at 50 µM: Homo sapiens, 5 h; for inhibition of phospho-Rsk / Raf-Mek-Erk pathway, in words: Western blotting, concentrations of 5-50 μM
Description: as §11, §12

T1 sequence (P42336 whole entry): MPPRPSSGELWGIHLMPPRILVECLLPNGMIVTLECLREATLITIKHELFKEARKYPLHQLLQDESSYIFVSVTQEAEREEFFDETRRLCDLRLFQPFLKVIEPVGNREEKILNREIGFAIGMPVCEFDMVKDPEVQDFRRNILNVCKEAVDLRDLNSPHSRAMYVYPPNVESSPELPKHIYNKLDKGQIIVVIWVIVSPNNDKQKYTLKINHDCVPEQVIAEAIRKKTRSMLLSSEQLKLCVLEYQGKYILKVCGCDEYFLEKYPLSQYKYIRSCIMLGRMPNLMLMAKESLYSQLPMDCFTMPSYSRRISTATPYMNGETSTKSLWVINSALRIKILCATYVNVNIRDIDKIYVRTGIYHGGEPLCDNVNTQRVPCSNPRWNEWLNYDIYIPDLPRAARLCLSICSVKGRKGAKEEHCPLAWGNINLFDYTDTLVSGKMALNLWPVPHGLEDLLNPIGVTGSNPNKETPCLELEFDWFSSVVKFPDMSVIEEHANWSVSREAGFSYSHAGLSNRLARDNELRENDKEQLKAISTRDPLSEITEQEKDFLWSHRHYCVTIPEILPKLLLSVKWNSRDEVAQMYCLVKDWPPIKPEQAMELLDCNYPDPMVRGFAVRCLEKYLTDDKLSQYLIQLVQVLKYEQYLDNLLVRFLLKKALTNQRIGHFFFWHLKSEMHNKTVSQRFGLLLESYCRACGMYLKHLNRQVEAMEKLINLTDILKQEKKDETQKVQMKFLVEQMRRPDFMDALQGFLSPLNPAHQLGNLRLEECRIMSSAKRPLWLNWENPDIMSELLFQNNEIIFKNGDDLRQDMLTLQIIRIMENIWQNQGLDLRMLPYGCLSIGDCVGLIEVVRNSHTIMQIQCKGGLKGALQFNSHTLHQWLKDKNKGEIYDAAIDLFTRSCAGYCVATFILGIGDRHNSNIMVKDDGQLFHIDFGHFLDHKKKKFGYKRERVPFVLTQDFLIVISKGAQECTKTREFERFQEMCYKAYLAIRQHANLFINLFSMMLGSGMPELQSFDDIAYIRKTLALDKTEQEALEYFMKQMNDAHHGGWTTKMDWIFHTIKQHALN
T1 sequence (P27986 whole entry partner): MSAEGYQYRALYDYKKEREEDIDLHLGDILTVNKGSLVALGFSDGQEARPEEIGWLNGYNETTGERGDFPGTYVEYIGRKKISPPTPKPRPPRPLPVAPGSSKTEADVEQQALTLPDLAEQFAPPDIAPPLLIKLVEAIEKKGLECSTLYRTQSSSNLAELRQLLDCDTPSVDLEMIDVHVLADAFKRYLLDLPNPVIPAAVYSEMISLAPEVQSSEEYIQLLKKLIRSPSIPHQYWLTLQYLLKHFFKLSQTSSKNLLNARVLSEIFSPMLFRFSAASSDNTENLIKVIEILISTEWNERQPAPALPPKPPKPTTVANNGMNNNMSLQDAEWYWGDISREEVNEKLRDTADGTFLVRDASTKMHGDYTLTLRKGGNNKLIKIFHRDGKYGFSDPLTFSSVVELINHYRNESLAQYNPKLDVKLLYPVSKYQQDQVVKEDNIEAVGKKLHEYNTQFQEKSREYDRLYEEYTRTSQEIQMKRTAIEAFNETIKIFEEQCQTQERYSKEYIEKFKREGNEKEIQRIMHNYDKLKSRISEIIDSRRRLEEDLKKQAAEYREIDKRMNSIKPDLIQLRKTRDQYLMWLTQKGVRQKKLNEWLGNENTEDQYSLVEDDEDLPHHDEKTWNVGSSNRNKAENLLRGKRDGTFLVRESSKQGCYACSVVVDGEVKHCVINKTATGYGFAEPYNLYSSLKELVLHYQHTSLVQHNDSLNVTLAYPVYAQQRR

SMILES: CCNC(=O)Nc1ccc2ncc(Nc3cccc(OC(F)F)c3)nc2n1 [Compound 73, 1-[3-(3-Difluoromethoxy-phenylamino)-pyrido[2,3-b]pyrazin-6-yl]-3-ethyl-urea]
- PI3K inhibition, in words (PI3Kalpha): PI3K inhibition
- Erk2 / MAPK inhibition, in words [1]: no or only moderate MAPK inhibition
- IC50 (Erk2): > 100 µM
- IC50 (p38alpha): > 10 µM
- IC50 (Jnk1 + Jnk2): > 100 µM
- EC50 (MDA-MB468): < 5 µM
- EC50 (Hct116): < 5 µM

SMILES: CCNC(=O)Nc1cnc2ccc(-c3ccc(O)c(OC)c3)nc2n1 [Compound 5, 1-Ethyl-3-[6-(4-hydroxy-3-methoxy-phenyl)-pyrido[2,3-b]pyrazin-3-yl]-urea]
- PI3K inhibition, in words (PI3Kalpha): low IC50 values against PI3K
- IC50 (Erk2): > 100 µM
- IC50 (p38alpha): > 100 µM
- IC50 (Jnk1 + Jnk2): > 10 µM
- EC50 (MDA-MB468): < 1 µM
- EC50 (Hct116): < 2 µM
- inhibition at 50 µM (Phospho-Akt (Ser 473)): 100%
- inhibition of cellular phospho-Akt / PI3K-Akt pathway, in words (Phospho-Akt (Ser 473)): total inhibition of cellular phospho-Akt at compound concentrations <50 μM
- inhibition at 50 µM (Phospho-p90RSK (S380)): 0%
- inhibition of phospho-Rsk / Raf-Mek-Erk pathway, in words (Phospho-p90RSK (S380)): phospho-Rsk is not inhibited

SMILES: CCNC(=O)Nc1ccc2ncc(Nc3cccc(O)c3)nc2n1 [Compound 56, 1-Ethyl-3-[3-(3-hydroxy-phenylamino)-pyrido[2,3-b]pyrazin-6-yl]-urea]
- PI3K inhibition, in words (PI3Kalpha): PI3K inhibition
- Erk2 / MAPK inhibition, in words [1]: no or only moderate MAPK inhibition
- IC50 (Erk2): < 10 µM
- IC50 (p38alpha): < 10 µM
- IC50 (Jnk1 + Jnk2): > 10 µM
- EC50 (MDA-MB468): < 5 µM
- EC50 (Hct116): < 10 µM
- inhibition at 50 µM (Phospho-Akt (Ser 473)): 100%
- inhibition of cellular phospho-Akt / PI3K-Akt pathway, in words (Phospho-Akt (Ser 473)): cellular PI3K selectivity
- inhibition at 50 µM (Phospho-p90RSK (S380)): 0%
- inhibition of phospho-Rsk / Raf-Mek-Erk pathway, in words (Phospho-p90RSK (S380)): do not block the Raf-Mek-Erk pathway
- melting point: 270 to 273 °C

Further lines, with some results ahead:

- PI3K inhibition, in words (PI3Kalpha): inhibition of PI3K
- Erk2 / MAPK inhibition, in words [1]: inhibition of PI3K and Erk2
- IC50 (Erk2): < 0.5 µM
- IC50 (p38alpha): > 100 µM
- IC50 (Jnk1 + Jnk2): < 31.6 µM
- EC50 (MDA-MB468): < 5 µM
- EC50 (Hct116): < 5 µM
- melting point: 227 to 229 °C
SMILES: CCNC(=O)Nc1ccc2ncc(-c3ccc(OC(C)=O)c(OC)c3)nc2n1 [Compound 54, Acetic acid 4-[6-(3-ethyl-ureido)-pyrido[2,3-b]pyrazin-3-yl]-2-methoxy-phenyl ester]
- inhibition at 50 µM (Phospho-Akt (Ser 473)): 100%
- inhibition of cellular phospho-Akt / PI3K-Akt pathway, in words (Phospho-Akt (Ser 473)): inhibit both
- inhibition at 50 µM (Phospho-p90RSK (S380)): 90%
- inhibition of phospho-Rsk / Raf-Mek-Erk pathway, in words (Phospho-p90RSK (S380)): inhibit both

- PI3K inhibition, in words (PI3Kalpha): PI3K inhibition
- Erk2 / MAPK inhibition, in words [1]: no or only moderate MAPK inhibition
- IC50 (Erk2): > 100 µM
- IC50 (p38alpha): > 100 µM
- IC50 (Jnk1 + Jnk2): > 100 µM
- EC50 (MDA-MB468): < 10 µM
- EC50 (Hct116): < 5 µM
- melting point: 195 to 200 °C
SMILES: CCNC(=O)Nc1ccc2ncc(Nc3ccc(O)c(C(=O)OC)c3)nc2n1 [Compound 50, 5-[6-(3-Ethyl-ureido)-pyrido[2,3-b]-pyrazin-3-ylamino]-2-hydroxy-benzoic acid methyl ester]
- inhibition at 50 µM (Phospho-Akt (Ser 473)): 100%
- inhibition of cellular phospho-Akt / PI3K-Akt pathway, in words (Phospho-Akt (Ser 473)): cellular PI3K selectivity
- inhibition at 50 µM (Phospho-p90RSK (S380)): 0%
- inhibition of phospho-Rsk / Raf-Mek-Erk pathway, in words (Phospho-p90RSK (S380)): do not block the Raf-Mek-Erk pathway

- PI3K inhibition, in words (PI3Kalpha): PI3K inhibition
- Erk2 / MAPK inhibition, in words [1]: no or only moderate MAPK inhibition
- IC50 (Erk2): > 100 µM
- IC50 (p38alpha): < 10 µM
- IC50 (Jnk1 + Jnk2): > 100 µM
- EC50 (MDA-MB468): < 5 µM
- EC50 (Hct116): < 5 µM
- melting point: 243 to 246 °C
SMILES: CCNC(=O)Nc1ccc2ncc(Nc3ccccc3O)nc2n1 [Compound 55, 1-Ethyl-3-[3-(2-hydroxy-phenylamino)-pyrido[2,3-b]pyrazin-6-yl]-urea]
- inhibition at 50 µM (Phospho-Akt (Ser 473)): 90%
- inhibition of cellular phospho-Akt / PI3K-Akt pathway, in words (Phospho-Akt (Ser 473)): cellular PI3K selectivity
- inhibition at 50 µM (Phospho-p90RSK (S380)): 0%
- inhibition of phospho-Rsk / Raf-Mek-Erk pathway, in words (Phospho-p90RSK (S380)): do not block the Raf-Mek-Erk pathway

Reference: patent publication US8536332B2, “Modulating signal transduction pathways with substituted pyridol [2,3-b] pyrazines” (Aeterna Zentaris GmbH, priority 2007, dated 2013)
